Assay results from US20240252456A1, “ORAL COMPOSITION, SKIN COSMETIC AND HAIR COSMETIC” (MARUZEN PHARMACEUTICALS CO., LTD., priority 2021, published 2024).

Assays:
[1] = test system: Mouse macrophage cells (RAW264.7); experiment: Nitric oxide (NO) production suppressive action test; type: cell-based; details: RAW264.7, LPS 1 μg/mL, 48 hours
Protocol: Mouse macrophage cells (RAW264.7) were cultured using Dulbecco's modified Eagle's medium (DMEM) containing 10% FBS, and then the cells were collected using a cell scraper. The collected cells were diluted with phenol red-free DMEM containing 10% FBS to a cell density of 3.0×10^6 cells/mL, then seeded with 100 μL per well in a 96-well plate, and cultured for 4 hours.
After culturing, the medium was removed, 100 μL of the test sample (Sample 1, see Table 26 below for final concentration) dissolved in phenol red-free DMEM containing DMSO at a final concentration of 0.5% and 10% FBS was added to each well, 100 μL of lipopolysaccharide (LPS, final concentration 1 μg/mL, E. coli 0111:B4, available from DIFCO) dissolved in phenol red-free DMEM containing 10% FBS was added, and culturing was performed for 48 hours. As a control, the LPS process was performed in the same manner using, as substitute for the test sample solution, phenol red-free DMEM containing DMSO at a final concentration of 0.5% and 10% FBS to which no sample was added.
The production amount of nitric oxide (NO) was measured using the amount of nitrite ions ([…]) as an index. After the culturing was completed, the same amount of Griess reagent (5 mass % phosphoric acid solution containing 1 mass % sulfanilamide and 0.1 mass % N-1-naphthyl ethylendiamine dihydrochloride) as the culture supernatant was added to the culture solution in each well and reacted for 10 minutes at room temperature. After the reaction, the absorbance at a wavelength of 540 nm was measured. The nitric oxide (NO) production suppression rate (%) was calculated by the following equation based on the nitric oxide (NO) production amount when no sample was added (control).
Terms in the equation represent the following respective ones. • A: NO amount with test sample addition • B: NO amount […]

[2] = test system: CLDN1 mRNA; experiment: Claudin-1 (CLDN1) mRNA expression promotive action test; type: cell-based, human; details: NHEK, 24 hours, corrected with GAPDH
Protocol: Normal human neonatal epidermal keratinocytes (NHEK) were precultured using normal human epidermal keratinocyte growth medium (KGM), and the cells were collected by a trypsin treatment. The collected cells were diluted with KGM to a cell density of 15×10^4 cells/mL, then seeded with 2 mL portions in a 6-well plate (30×10^4 cells/well), and cultured overnight under conditions of 37° C. and 5% CO2. After culturing, the medium was replaced with normal human epidermal keratinocyte basal medium (KBM, the above KGM without addition of growth additives (hEGF, BPE, insulin, antibacterial agents, hydrocortisone)), and culturing was further performed for 24 hours.
After culturing for 24 hours, the medium was removed, and 2 mL of each of test samples (Samples 1 and 3, see Table 19 below for final concentrations) dissolved in KBM was added to each well, and culturing was performed under conditions of 37° C. and 5% CO2 for 24 hours. As a control, culturing was performed in the same manner using KBM to which no sample was added. After culturing, the medium was removed, total RNA was extracted using ISOGEN II (available from NIPPON GENE CO., LTD.), each RNA amount was measured using a spectrophotometer, and the total RNA was prepared so as to be 150 ng/μL.
For CLDN1 and GAPDH as an internal standard, the expression levels of mRNA were measured using the above total RNA as a template. Detection was performed through a two-step real-time RT-PCR reaction using a real-time PCR device, Thermal Cycler Dice Real Time System III (available from Takara Bio Inc.), with PrimeScript™ RT Master Mix (Perfect Real Time) (available from Takara Bio Inc.) and TB Green® Fast qPCR Mix (available from Takara Bio Inc.). Primers available from Takara Bio Inc. were used. The expression level of CLDN1 mRNA was obtained as a value corrected with a value of GAPDH based on total RNA preparations prepared from cells cultured “with test sample addition” and “without sample addition.” From the obtained values, the CLDN1 mRNA expression promotion rate (%) was calculated using the following equation. […]

[3] = test system: Normal human dermal fibroblasts (NB1RGB); experiment: Hyaluronic acid production promotive action test; type: cell-based; details: 3 days, A/B×100 vs no sample
Protocol: (§1) Normal human dermal fibroblasts (NB1RGB) were cultured using Dulbecco's modified Eagle's medium (DMEM) containing 10% FBS, and then the cells were collected by a trypsin treatment. The collected cells were diluted with DMEM containing 0.25% FBS to a cell density of 1.6×10^5 cells/mL, then seeded with 100 μL per well in a 96-well plate, and cultured overnight.
After the culturing was completed, 100 μL of each of test samples (Samples 1 and 2, see Table 9 below for final concentrations) dissolved in DMEM containing 0.25% FBS was added to each well, and culturing was performed for 3 days. As a control, culturing was performed in the same manner using DMEM containing 0.25% FBS to which no sample was added. After the culturing was completed, the amount of hyaluronic acid in the medium of each well was measured by a sandwich method using hyaluronic acid binding protein (HABP). From the obtained results, the hyaluronic acid production promotion rate (%) was calculated using the following equation.
Hyaluronic acid production promotion rate (%)=A/B×100
Terms in the equation represent the following respective ones. • A: Hyaluronic acid amount with test sample addition • B: Hyaluronic acid amount without sample addition

[4] = test system: Normal human dermal fibroblasts (NB1RGB); experiment: Elastin production promotive action test; type: cell-based; details: 5 days
Protocol: as §1, with “the above medium” for “DMEM containing 0.25% FBS”, “2.2×10^5” for “1.6×10^5”, “microplate,” for “plate,”
After the culturing was completed, the medium was removed, and 150 μL of each of test samples (Samples 2 and 3, see Table 7 below for final concentrations) dissolved in DMEM containing 0.25% FBS was added to each well, and culturing was performed for 5 days. As a control, culturing was performed in the same manner using DMEM containing 0.25% FBS to which no sample was added. After the culturing was completed, the supernatant was recovered, and the amount of elastin released in the culture supernatant was measured by ELISA method. From the measurement results, the elastin production promotion rate (%) was calculated using the following equation.
Terms in the equation represent the following respective ones. • A: Elastin amount with test sample addition • B: Elastin amount without sample addition

| SMILES | NO production suppression rate ([1]; 31.2 μmol/L) | NO production suppression rate ([1]; 125 μmol/L) | NO production suppression rate ([1]; 500 μmol/L) | CLDN1 mRNA expression promotion rate ([2]; 25 μmol/L) | CLDN1 mRNA expression promotion rate ([2]; 100 μmol/L) | Hyaluronic acid production promotion rate ([3]; 25 μmol/L) | Hyaluronic acid production promotion rate ([3]; 50 μmol/L) | Hyaluronic acid production promotion rate ([3]; 100 μmol/L) | Hyaluronic acid production promotion rate ([3]; 200 μmol/L) | Elastin production promotion rate ([4]; 15.6 μmol/L) | Elastin production promotion rate ([4]; 62.5 μmol/L) | Elastin production promotion rate ([4]; 250 μmol/L) |
| --- | --- | --- | --- | --- | --- | --- | --- | --- | --- | --- | --- | --- |
| O=C(O)CCc1ccc(O)c(O)c1 [Sample 1, 3,4-Dihydroxyhydrocinnamic acid] | 14.9% | 49.4% | 77.8% | 256.6% | 568.6% | 124.2% | – | – | – | – | – | – |
| O=C(O)CCc1ccc(O)cc1 [Sample 2, 3-(4-Hydroxyphenyl)propionic acid] | – | – | – | – | – | – | 121.8% | 119.3% | 111.7% | 145.4% | 147.6% | 189.3% |
| O=C(O)CCc1ccccc1 [Sample 3, 3-phenylpropionic acid] | – | – | – | 125.5% | – | – | – | – | – | – | 174.0% | 239.0% |
